# From patent publication US12152034B2, “FGFR inhibitors and methods of making and using the same” (Relay Therapeutics, Inc., priority 2020, dated 2024)
# Values joined by “and” are separate entries in the source; they are usually repeats but may differ in a detail not shown here. Identical values can stand only once. “Also recorded” adds a separate entry of the source. Like-named read-outs stand apart in the source and are kept apart here.
# Legend:
# Type in all cases: physicochemical
# [1] = Storage at 40° C./75% RH for 7 days (one week), form checked by XRPD; conditions: for Storage at 40° C./75% RH for one week (row head not given): Compound IV salts; for Storage at 40° C./75% RH for one week (row head not given) / Storage at 40° C./75% RH for 7 days: form by XRPD; for XRPD after storage at 40° C./75% RH for 7 days: one week (7 days); for Storage at 40° C./75% RH for 7 days: Compound III salts
# Experimental: The suspensions were then cooled down to 5° C. at 0.1° C./min and were held at this temperature for 16 hrs. Stirring (500 rpm) was maintained throughout. Any gums that formed were maturated between 25 and 50° C. (4 hours at each temperature for 24 hrs). The suspensions were isolated by filtration under suction and air dried then analysed by XRPD. Any new patterns identified by XRPD were analysed further by NMR, TGA, DSC and stability at 40 C/75% RH for 1 week.
# [2] = Solubility measurements in SGF, FeSSIF and FaSSIF with XRPD of residual solids; conditions: for solubility in all media (in words): FeSSIF and FaSSIF; for solubility in FeSSIF (in words): simulated fed state intestinal fluid; for Average Solubility / XRPD of residual solid / pH at 24 hrs / Solubility: Compound III-1, HCl and sulfate salts; for Solubility: single replicate
# Excerpt: The results from the solubility measurements in simulated gastric fluid (SGF), simulated fed state conditions in the small intestines (FeSSIF), and simulated fasting state conditions in the small intestines fluid (FaSSIF) are summarised in Table 12. The salts show reduced solubility in SGF compared to the free form.
# Crystalline FB Form A, HCl Form A, and the sufate salt Form A were scaled up for solubility analysis.
# HCl Form A was successfully scaled up for solubility analysis.
# [3] = Solubility assessment in solvents by aliquot addition (5-40 vol, 25° C., then heating)
# Experimental: Compound II-1 (40 mg) was treated with an aliquot of solvent (200 μl for 5 vol, 400 μl for 10 vol, 800 μl for 20 vol) and left to stir at 25° C. for 15 minutes. After 15 minutes, suspensions were treated with another aliquot of solvent and left to stir for the same duration again. Any solutions were removed from stirring and further solvent additions. This procedure was repeated up to 40 vol.
# At 40 vol, any remaining suspensions were heated to 40° C. at a rate of 10° C./min. Samples that remained as suspensions at 40° C. were moved to the maturation chamber (RT/50° C.) for 4 days. All solutions from solvent additions were heated to 50° C. before cooling to 5° C. at a rate of 0.1° C./min, then held at 5° C. overnight. […]
# [4] = simulated fasting state intestinal fluid
structure (smiles),measurement,setting,value
C#Cc1cc(C)c(-c2c(-c3ccc(Oc4nccc(C)n4)c(F)c3)c3c(C)ncnc3n2C)c(C)n1.O=S(=O)(O)c1ccccc1 [BSA Form A],Storage at 40° C./75% RH for one week (row head not given),[1],Change in form -
C=C(C)C(=O)Nc1ccc(-c2c(C3=CC[C@H](C(=O)N4CCCC4)CC3)c3c(N)ncnc3n2C)c(C)c1.Cl [Compound II-2],XRPD after storage at 40° C./75% RH for 7 days,[1],no change
Br.C=C(C)C(=O)Nc1ccc(-c2c(C3=CC[C@H](C(=O)N4CCCC4)CC3)c3c(N)ncnc3n2C)c(C)c1 [Compound II-3],XRPD after storage at 40° C./75% RH for 7 days,[1],convert to an amorphous form
C=C(C)C(=O)Nc1ccc(-c2c(C3=CC[C@H](C(=O)N4CCCC4)CC3)c3c(N)ncnc3n2C)c(C)c1.Cc1ccc(S(=O)(=O)O)cc1 [Compound II-4],XRPD after storage at 40° C./75% RH for 7 days,[1]; listed as Compound II pTSA Form A,XRPD unchanged
same,XRPD after storage at 40° C./75% RH for 7 days,[1]; listed as Compound II pTSA Form B,conversion to pTSA Form A; also recorded: Converted to pTSA
same,XRPD after storage at 40° C./75% RH for 7 days,[1]; listed as Compound II pTSA Form C,conversion to pTSA Form A; also recorded: Converted to pTSA
same,XRPD after storage at 40° C./75% RH for 7 days,[1]; listed as Compound II-1 tosylate salt,no change
same,solubility in FaSSIF (in words),[2],highest solubility
C=C(C)C(=O)Nc1ccc(-c2c(C3=CC[C@H](C(=O)N4CCCC4)CC3)c3c(N)ncnc3n2C)c(C)c1.O=S(=O)(O)c1ccccc1 [Compound II-6],XRPD after storage at 40° C./75% RH for 7 days,[1],no change
same,solubility in all media (in words),[2]; SGF,low solubility
C=C(C)C(=O)Nc1ccc(-c2c(C3=CC[C@H](C(=O)N4CCCC4)CC3)c3c(N)ncnc3n2C)c(C)c1.O=C(O)/C=C/C(=O)O [Compound II-7],XRPD after storage at 40° C./75% RH for 7 days,[1],no change
C#Cc1cc(OC)c(-c2c(-c3ccc(Oc4nccc(C)n4)c(F)c3)c3c(C)ncnc3n2C)cn1.Cl [Compound III-2],XRPD after storage at 40° C./75% RH for 7 days,[1]; listed as Compound III HCl Form A,converting to HCl Form B
same,XRPD after storage at 40° C./75% RH for 7 days,[1]; listed as Compound III HCl Form B,large reduction in crystallinity
same,XRPD after storage at 40° C./75% RH for 7 days,[1]; listed as Compound III HCl Form D,no change in form
same,XRPD after storage at 40° C./75% RH for 7 days,[1]; listed as Compound III HCl Patterns 3 and 5,no change in form
same,XRPD after storage at 40° C./75% RH for 7 days,[1]; listed as Compound III-1 chloride salt,change form
same,XRPD of residual solids after solubility measurement,[2]; FaSSIF,new form
same,solubility in FeSSIF (in words),[2],lower solubility than the free form
Br.C#Cc1cc(OC)c(-c2c(-c3ccc(Oc4nccc(C)n4)c(F)c3)c3c(C)ncnc3n2C)cn1 [Compound III-3],XRPD after storage at 40° C./75% RH for 7 days,[1],change form
C#Cc1cc(OC)c(-c2c(-c3ccc(Oc4nccc(C)n4)c(F)c3)c3c(C)ncnc3n2C)cn1.O=S(=O)(O)O [Compound III-4],XRPD after storage at 40° C./75% RH for 7 days,[1]; listed as Compound III-1 sulfate salt,small changes in the XRPD diffractogram
same,XRPD of residual solids after solubility measurement,[2]; FaSSIF,too poorly crystalline to assign
same,solubility in FaSSIF (in words),[2]; [4],slightly more soluble than the chloride salt
same,solubility in FeSSIF (in words),[2],slightly more soluble than the chloride salt
C#Cc1cc(OC)c(-c2c(-c3ccc(Oc4nccc(C)n4)c(F)c3)c3c(C)ncnc3n2C)cn1.CS(=O)(=O)O [Compound III-5],XRPD after storage at 40° C./75% RH for 7 days,[1],lose crystallinity
C#Cc1cc(OC)c(-c2c(-c3ccc(Oc4nccc(C)n4)c(F)c3)c3c(C)ncnc3n2C)cn1.O=C(O)C(O)C(O)C(=O)O [Compound III-6],XRPD after storage at 40° C./75% RH for 7 days,[1],No change in form
"C#Cc1cc(C)c(-c2c(-c3ccc(Oc4nccc(C)n4)c(F)c3)c3c(C)ncnc3n2C)c(C)n1 [Compound IV-1, 6-(6-ethynyl-2,4-dimethylpyridin-3-yl)-5-(3-fluoro-4-((4-methylpyrimidin-2-yl)oxy)phenyl)-4,7-dimethyl-7H-pyrrolo[2,3-d]pyrimidine]",XRPD of residual solids after solubility measurement,"[2]; all media (SGF, FeSSIF, FaSSIF)",remained unchanged
same,solubility in FaSSIF (in words),[2]; [4],lowest solubility
same,Observation after treatment,"[3]; 2-Propanol, after cooling from 50° C. to 5° C.",Clear solution
same,Observation after treatment,"[3]; 10% Water/IPA, after cooling from 50° C. to 5° C.",Clear solution
same,Observation after treatment,"[3]; 10% Water/MeCN, after cooling from 50° C. to 5° C.",Clear solution
same,solubility in the solvents tested (in words),"[3]; 13 solvents, up to 40 vol",soluble in all but three of the solvents tested
same,Observation after treatment,"[3]; Acetone, after cooling from 50° C. to 5° C.",Clear solution
same,Observation after treatment,"[3]; Ethanol, after cooling from 50° C. to 5° C.",Clear solution
same,Observation after treatment,"[3]; Ethyl acetate, after cooling from 50° C. to 5° C.",Clear solution
same,Observation after treatment,"[3]; Isopropyl acetate, after cooling from 50° C. to 5° C.",Clear solution
same,Observation after treatment,"[3]; MEK, after cooling from 50° C. to 5° C.",Clear solution
same,Observation after treatment,"[3]; Methanol, after cooling from 50° C. to 5° C.",Clear solution
same,Observation after treatment,"[3]; TBME, 40 vol, after maturation (RT/50° C.) 4 days",Suspension
same,Observation after treatment,"[3]; THF, after cooling from 50° C. to 5° C.",Clear solution
same,Observation after treatment,"[3]; Water, 40 vol, after maturation (RT/50° C.) 4 days",Suspension
same,Observation after treatment,"[3]; n-Heptane, 40 vol, after maturation (RT/50° C.) 4 days",Suspension
C#Cc1cc(C)c(-c2c(-c3ccc(Oc4nccc(C)n4)c(F)c3)c3c(C)ncnc3n2C)c(C)n1.Cl [Compound IV-2],XRPD after storage at 40° C./75% RH for 7 days,[1],no change to form
same,XRPD of residual solids after solubility measurement,[2]; FaSSIF,converted to free form Form A
same,XRPD of residual solids after solubility measurement,[2]; FeSSIF,converted to free form Form A
same,solubility in all media (in words),[2]; SGF,more soluble than the tosylate salt
same,solubility in SGF (in words),[2]; simulated gastric fluid,completely dissolved
C#Cc1cc(C)c(-c2c(-c3ccc(Oc4nccc(C)n4)c(F)c3)c3c(C)ncnc3n2C)c(C)n1.Cc1ccc(S(=O)(=O)O)cc1 [Compound IV-3],XRPD after storage at 40° C./75% RH for 7 days,[1]; listed as Compound IV pTSA Form A,pTSA Form B
same,XRPD after storage at 40° C./75% RH for 7 days,[1]; listed as Compound IV-1 tosylate salt,change form
same,XRPD of residual solids after solubility measurement,[2]; FaSSIF,remained unchanged
same,XRPD of residual solids after solubility measurement,[2]; FeSSIF,too poorly crystalline to assign
same,XRPD of residual solids after solubility measurement,[2]; SGF,remained unchanged
C#Cc1cc(C)c(-c2c(-c3ccc(Oc4nccc(C)n4)c(F)c3)c3c(C)ncnc3n2C)c(C)n1.CS(=O)(=O)O [Compound IV-4],XRPD after storage at 40° C./75% RH for 7 days,[1],lose crystallinity
C#Cc1cc(C)c(-c2c(-c3ccc(Oc4nccc(C)n4)c(F)c3)c3c(C)ncnc3n2C)c(C)n1.O=S(=O)(O)c1ccccc1 [Compound IV-5],XRPD after storage at 40° C./75% RH for 7 days,[1],change form
Br.C#Cc1cc(OC)c(-c2c(-c3ccc(Oc4nccc(C)n4)c(F)c3)c3c(C)ncnc3n2C)cn1 [HBr Form A],Storage at 40° C./75% RH for 7 days,[1],Change in form -
C#Cc1cc(C)c(-c2c(-c3ccc(Oc4nccc(C)n4)c(F)c3)c3c(C)ncnc3n2C)c(C)n1.Cl [HC1 Form A],Storage at 40° C./75% RH for one week (row head not given),[1],Reduced crystallinity -
C#Cc1cc(OC)c(-c2c(-c3ccc(Oc4nccc(C)n4)c(F)c3)c3c(C)ncnc3n2C)cn1.O=S(=O)(O)O [SO4 Form A],Average Solubility,[2]; FaSSIF,1.95 mg/mL
same,XRPD of residual solid,[2]; FaSSIF,Poorly crystalline
same,pH at 24 hrs,[2]; FaSSIF,2.6 and 2.7
same,Solubility,[2]; FaSSIF,2.00 mg/mL and 1.90 mg/mL
same,Average Solubility,[2]; FeSSIF,0.23 mg/mL
same,XRPD of residual solid,[2]; FeSSIF,FB Form C
same,pH at 24 hrs,[2]; FeSSIF,4.4
same,Solubility,[2]; FeSSIF,0.24 mg/mL and 0.22 mg/mL
same,Average Solubility,[2]; SGF,>10.5 mg/mL
same,pH at 24 hrs,[2]; SGF,1.7
same,Solubility,[2]; SGF,>10.2 mg/mL and >10.7 mg/mL
C#Cc1cc(OC)c(-c2c(-c3ccc(Oc4nccc(C)n4)c(F)c3)c3c(C)ncnc3n2C)cn1.O=C(O)C(O)C(O)C(=O)O [TAR Form A],Storage at 40° C./75% RH for 7 days,[1],No change
C#Cc1cc(C)c(-c2c(-c3ccc(Oc4nccc(C)n4)c(F)c3)c3c(C)ncnc3n2C)c(C)n1.Cc1ccc(S(=O)(=O)O)cc1 [pTSA Form A],Storage at 40° C./75% RH for one week (row head not given),[1],Change in form -
